Data from US12227488B2, “Small molecule degraders of Helios and methods of use” (DANA-FARBER CANCER INSTITUTE, INC., priority 2018, dated 2025).

Legend:
Helios [1] = biological target: T1, Helios (Mus musculus, UniProt P81183+Q8C7D2, I391V); assay: Helios levels in isolated Crbn^I391V/I391V Tregs; assay type: cell-based, murine; conditions: 2 μM, IL-2 and IL-4, 4 days
T1 construct: from tissue; host or cells: spleen (T cell subpopulations / CD4+ CD25+ Tregs) of Crbn I391V/I391V mice
Experimental: (§1) FIG. 9A-FIG. 9C are a series of graphs showing that Helios degradation in Tregs permits IFNγ production. Isolated Crbn^I391V/I391V Tregs were treated with 2 μM of compound 69, 5 ng/mL IL-2, and 20 ng/mL IL-4 for 4 days and then restimulated with PMA/ionomycin for 5 h. […] FIG. 9B is a bar graph showing the percent increase of IFNγ with treatment of compound 69.
(§2) Foxp3+ regulatory T cells were isolated by sorting for CD4+ CD25+ T cells from Crbn^I391V/I391V spleens, treated with 2 μM of compound 69, 5 ng/mL IL-2, and 20 ng/mL IL4 for 4 days and then restimulated with PMA/ionomycin for 5 h. Cells were then fixed/permeabilized and stained with fluorochrome-coupled antibodies. […] FIG. 9B is a bar graph showing the percent increase of IFNγ with treatment of compound 69.

IKZF1 = biological target: T2, IKZF1 (Homo sapiens, UniProt Q13422); assay: Cellular degradation assay, eGFP-IKZF1Δ fusion with mCherry reporter in Flp-In 293 cells; assay type: cell-based; conditions: for IKZF1 GFP/RFP Relative Abundance: 5 h incubation, n=1
T2 construct: expressed in transfected cells; host or cells: Flp-In 293
T2 sequence (Q13422 83-213 isoform Q13422-7 limits assumed): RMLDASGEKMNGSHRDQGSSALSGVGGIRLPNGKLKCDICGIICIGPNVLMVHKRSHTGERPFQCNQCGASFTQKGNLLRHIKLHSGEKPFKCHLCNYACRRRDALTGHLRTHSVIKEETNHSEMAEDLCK
T2 sequence (Q96SW2 whole entry partner, the tested form may be a part): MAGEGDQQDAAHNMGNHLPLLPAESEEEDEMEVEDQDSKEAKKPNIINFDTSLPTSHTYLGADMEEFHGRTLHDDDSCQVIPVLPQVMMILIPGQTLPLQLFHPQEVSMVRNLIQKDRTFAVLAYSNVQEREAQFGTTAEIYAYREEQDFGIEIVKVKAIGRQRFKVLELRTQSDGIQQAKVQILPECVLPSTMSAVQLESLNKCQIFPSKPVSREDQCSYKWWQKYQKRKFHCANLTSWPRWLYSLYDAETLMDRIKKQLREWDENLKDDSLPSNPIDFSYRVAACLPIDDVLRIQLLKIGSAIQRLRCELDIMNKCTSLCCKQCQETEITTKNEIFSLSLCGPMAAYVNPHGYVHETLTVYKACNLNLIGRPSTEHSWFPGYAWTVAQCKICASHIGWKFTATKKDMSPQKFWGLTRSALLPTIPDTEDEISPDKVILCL
T2 sequence (Q16531 2-1140 partner limits assumed): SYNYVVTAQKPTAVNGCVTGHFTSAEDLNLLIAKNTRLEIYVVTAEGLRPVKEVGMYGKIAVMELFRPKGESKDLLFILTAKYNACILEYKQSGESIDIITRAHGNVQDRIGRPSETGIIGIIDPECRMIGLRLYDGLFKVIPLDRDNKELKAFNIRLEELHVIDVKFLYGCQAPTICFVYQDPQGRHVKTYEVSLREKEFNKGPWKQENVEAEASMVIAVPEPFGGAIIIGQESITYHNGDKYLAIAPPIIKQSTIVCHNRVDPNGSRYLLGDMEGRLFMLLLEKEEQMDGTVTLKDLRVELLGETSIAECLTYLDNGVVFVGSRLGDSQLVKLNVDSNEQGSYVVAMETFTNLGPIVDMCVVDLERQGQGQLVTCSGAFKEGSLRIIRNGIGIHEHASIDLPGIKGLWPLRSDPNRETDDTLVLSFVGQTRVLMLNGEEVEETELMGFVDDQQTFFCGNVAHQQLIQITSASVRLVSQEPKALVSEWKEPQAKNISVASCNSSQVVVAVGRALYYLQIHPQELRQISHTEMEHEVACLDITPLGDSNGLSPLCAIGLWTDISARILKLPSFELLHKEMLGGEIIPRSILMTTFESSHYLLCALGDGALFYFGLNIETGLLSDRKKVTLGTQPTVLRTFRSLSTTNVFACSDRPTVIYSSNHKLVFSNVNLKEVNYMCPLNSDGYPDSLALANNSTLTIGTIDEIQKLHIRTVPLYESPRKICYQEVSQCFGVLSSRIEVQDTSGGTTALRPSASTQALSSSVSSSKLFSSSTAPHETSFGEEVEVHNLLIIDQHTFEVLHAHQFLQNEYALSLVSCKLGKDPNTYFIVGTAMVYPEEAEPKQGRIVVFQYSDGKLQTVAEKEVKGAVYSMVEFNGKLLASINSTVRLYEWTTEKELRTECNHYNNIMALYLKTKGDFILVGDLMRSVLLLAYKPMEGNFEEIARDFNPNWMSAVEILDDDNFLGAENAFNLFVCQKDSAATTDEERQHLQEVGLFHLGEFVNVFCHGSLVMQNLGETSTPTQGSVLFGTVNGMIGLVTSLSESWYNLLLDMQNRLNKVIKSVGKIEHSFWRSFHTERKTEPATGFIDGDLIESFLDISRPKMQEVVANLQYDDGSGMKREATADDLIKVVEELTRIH
Method in brief: (§3)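 Flp-In 293 cells stably expressing eGFP-tagged degron fusions with P2A-mCherry reporter were treated with compound titrations (0.5% DMSO) for 5 hours. Imaging quantified GFP-positive/mCherry-positive cell fraction per well; DC50 at 5 h from nonlinear variable-slope fit.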

Helios [2] = biological target: T3, Helios (Homo sapiens, UniProt Q96SW2+Q9UKS7); assay: Immunoblot for Helios in Jurkat cells; assay type: cell-based
T3 construct: endogenous in cells; host or cells: Jurkat
Experimental: (§4) A focused library of imide analogs was synthesized and assessed for their ability to induce dimerization between CRBN and Helios in a time-resolved fluorescence energy transfer (TR-FRET) assay (FIG. 1A).
(§5) Cells were lysed in M-PER buffer (Thermo Scientific) containing protease/phosphatase inhibitor cocktail (Roche). Protein concentration was measured using a BCA assay (Pierce™) Equivalent amounts of each sample were loaded on 4-12% Bis-Tris gels (Invitrogen™) transferred to nitrocellulose membranes, and immunoblotted with the indicated antibodies. IRDye®800-labeled goat anti-rabbit IgG and IRDye®680-labeled goat anti-mouse IgG (LI-COR®) secondary antibodies were purchased from LI-COR®, and membranes were detected on an Odyssey® detection system (LI-COR® Biosciences).
as §5, with “Odyssey” for “Odyssey®”

GSPT1 [3] = biological target: T4, GSPT1 (Homo sapiens, UniProt P15170+Q96SW2); assay: Cellular degradation assay, eGFP-GSPT1 fusion with mCherry reporter in Flp-In 293 cells; assay type: cell-based; set-up: expressed in transfected cells; host or cells: Flp-In 293; conditions: half degradation at 5 h (DC50,5 h); triplicate, 11 point dose response
T4 sequence (P15170 whole entry, the tested form may be a part): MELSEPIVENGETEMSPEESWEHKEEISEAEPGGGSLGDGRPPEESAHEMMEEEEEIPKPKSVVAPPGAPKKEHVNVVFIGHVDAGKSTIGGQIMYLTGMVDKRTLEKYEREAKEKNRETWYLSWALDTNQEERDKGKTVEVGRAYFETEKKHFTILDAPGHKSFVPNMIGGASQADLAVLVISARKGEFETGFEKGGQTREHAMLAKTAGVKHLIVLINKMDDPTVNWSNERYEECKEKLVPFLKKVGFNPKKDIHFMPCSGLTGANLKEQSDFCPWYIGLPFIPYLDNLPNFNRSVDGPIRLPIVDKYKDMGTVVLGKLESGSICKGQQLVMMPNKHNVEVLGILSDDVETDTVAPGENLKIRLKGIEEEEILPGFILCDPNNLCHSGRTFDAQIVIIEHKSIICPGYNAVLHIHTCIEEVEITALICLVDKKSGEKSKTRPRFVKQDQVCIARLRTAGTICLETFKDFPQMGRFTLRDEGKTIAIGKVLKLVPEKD
T4 sequence (Q96SW2 whole entry, the tested form may be a part): as the sequence (Q96SW2 whole entry partner, the tested form may be a part) above
T4 sequence (Q16531 whole entry partner, the tested form may be a part): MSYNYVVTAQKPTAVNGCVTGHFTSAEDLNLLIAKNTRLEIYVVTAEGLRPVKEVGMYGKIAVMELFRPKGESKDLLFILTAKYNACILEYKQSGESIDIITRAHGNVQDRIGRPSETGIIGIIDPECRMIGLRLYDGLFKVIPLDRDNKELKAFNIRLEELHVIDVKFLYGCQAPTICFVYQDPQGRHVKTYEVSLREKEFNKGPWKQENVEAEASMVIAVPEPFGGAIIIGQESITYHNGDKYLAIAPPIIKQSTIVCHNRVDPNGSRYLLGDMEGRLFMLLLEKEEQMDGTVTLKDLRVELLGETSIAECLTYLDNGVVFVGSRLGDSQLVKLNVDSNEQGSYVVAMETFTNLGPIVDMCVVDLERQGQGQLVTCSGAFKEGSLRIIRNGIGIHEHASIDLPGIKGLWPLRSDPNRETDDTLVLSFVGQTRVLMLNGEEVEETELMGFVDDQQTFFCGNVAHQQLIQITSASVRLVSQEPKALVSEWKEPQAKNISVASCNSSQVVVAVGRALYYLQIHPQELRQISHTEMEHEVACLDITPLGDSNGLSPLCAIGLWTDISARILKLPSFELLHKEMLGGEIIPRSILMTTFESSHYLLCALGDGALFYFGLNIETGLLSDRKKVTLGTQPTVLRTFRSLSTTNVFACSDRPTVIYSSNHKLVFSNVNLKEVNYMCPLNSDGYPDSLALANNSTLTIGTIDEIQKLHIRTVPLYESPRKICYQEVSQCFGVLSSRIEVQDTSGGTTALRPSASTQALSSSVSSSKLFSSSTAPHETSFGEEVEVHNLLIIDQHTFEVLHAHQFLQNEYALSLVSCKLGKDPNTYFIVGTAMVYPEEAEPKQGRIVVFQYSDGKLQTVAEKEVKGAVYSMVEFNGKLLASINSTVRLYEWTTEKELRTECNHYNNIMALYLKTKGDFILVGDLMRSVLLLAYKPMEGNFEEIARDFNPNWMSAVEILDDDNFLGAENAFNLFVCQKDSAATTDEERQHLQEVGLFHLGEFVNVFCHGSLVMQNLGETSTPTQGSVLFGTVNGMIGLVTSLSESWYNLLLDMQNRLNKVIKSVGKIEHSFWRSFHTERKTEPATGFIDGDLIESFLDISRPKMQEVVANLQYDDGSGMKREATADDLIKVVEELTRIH
Method in brief: as §3

IKZF2 = assay: Cellular degradation assay, eGFP-IKZF2Δ fusion with mCherry reporter in Flp-In 293 cells; assay type: cell-based; conditions: for IKZF2 GFP/RFP Relative Abundance: 5 h incubation, n=1
Method in brief: as §3

CRBN and Helios (IKZF2) = biological target: T5, CRBN and Helios (IKZF2) (Homo sapiens, UniProt Q96SW2+Q9UKS7); assay: TR-FRET dimerization assay (CRBN-IKZF2 ternary complex formation); assay type: binding; conditions: for TR-FRET-IKZF2 (Normalized to CC-885): n=1
T5 construct: His (N); Strep (N)
T5 sequence (Q96SW2 whole entry): as the sequence (Q96SW2 whole entry partner, the tested form may be a part) above
T5 sequence (Q9UKS7 whole entry): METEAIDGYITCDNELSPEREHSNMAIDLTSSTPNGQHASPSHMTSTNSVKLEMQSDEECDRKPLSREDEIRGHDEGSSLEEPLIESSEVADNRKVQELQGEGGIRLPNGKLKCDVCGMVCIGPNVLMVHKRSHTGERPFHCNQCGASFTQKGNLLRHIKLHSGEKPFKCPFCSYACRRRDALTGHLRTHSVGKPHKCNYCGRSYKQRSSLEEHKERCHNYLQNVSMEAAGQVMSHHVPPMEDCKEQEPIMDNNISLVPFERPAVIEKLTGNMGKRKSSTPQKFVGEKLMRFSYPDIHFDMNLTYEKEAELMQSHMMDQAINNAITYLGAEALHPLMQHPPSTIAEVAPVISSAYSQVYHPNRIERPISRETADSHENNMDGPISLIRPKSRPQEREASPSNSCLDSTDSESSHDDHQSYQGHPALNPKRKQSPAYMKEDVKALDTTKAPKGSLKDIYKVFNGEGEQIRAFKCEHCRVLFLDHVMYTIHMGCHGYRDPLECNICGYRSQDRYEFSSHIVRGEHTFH
Method in brief: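 BODIPY-labeled DDB1ΔB-CRBN and in vitro biotinylated IKZF2 were treated with increasing compound concentrations plus tracer Terbium-Streptavidin and incubated 15 min at rt. Recruitment was quantified as the 520/490 nm TR-FRET ratio; values are single measurements (n=1), each averaged from at least three technical replicates.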

Ikaros [4] = biological target: T6, Ikaros (Mus musculus, UniProt Q03267+Q8C7D2, I391V); assay: Flow cytometry of Ikaros in splenic T cell subpopulations from Crbn^I391V/I391V mice; assay type: cell-based, murine; conditions: 1 μM, 16 h
T6 construct: from tissue; host or cells: spleen (T cell subpopulations) of Crbn I391V/I391V mice
Experimental: (§6) FIG. 8A-FIG. 8B are a series of graphs depicting levels of Ikaros and Helios that were assessed by flow cytometry. […] FIG. 8B depicts levels of Ikaros and Helios of splenic T cell subpopulations from Crbn^I391V/I391V mice that were treated with 1 μM of indicated compounds for 16 h.
(§7) Splenocytes were fixed/permeabilized and stained with fluorochrome-coupled antibodies. FACS plots of murine splenocytes were stained for TCRβ, CD4, CD8, and FoxP3 (FIG. 8A).

Helios [5] = biological target: T1, Helios; assay: Flow cytometry of Helios in splenic T cell subpopulations from Crbn^I391V/I391V mice; assay type: cell-based, murine; conditions: 1 μM, 16 h
Experimental: as §6, §7

Ikaros [6] = biological target: T7, Ikaros (Homo sapiens, UniProt Q13422+Q96SW2); assay: Immunoblot for Ikaros in Jurkat cells; assay type: cell-based; conditions: 4 h treatment
T7 construct: endogenous in cells; host or cells: Jurkat
Experimental: as §4, §5

GSPT1 [7] = biological target: T4, GSPT1; assay: Immunoblot for GSPT1 in Jurkat cells; assay type: cell-based; set-up: expressed in transfected cells; conditions: wildtype or Crbn−/− Jurkat cells, 4 h treatment
Experimental: as §4, §5

[8] = system: Foxp3+ regulatory T cells; assay: IFNγ production of isolated Crbn^I391V/I391V Tregs after PMA/ionomycin restimulation; assay type: cell-based, murine; conditions: 2 μM, 4 days, restimulated with PMA/ionomycin 5 h
Experimental: as §1, §2

[9] = compound concentration 2.00E−05
[10] = compound concentration 2.00E−06
[11] = compound concentration 2.00E−07
[12] = half degradation at 5 h (DC50,5 h), triplicate, 11 point dose response

T1 sequence (P81183 whole entry): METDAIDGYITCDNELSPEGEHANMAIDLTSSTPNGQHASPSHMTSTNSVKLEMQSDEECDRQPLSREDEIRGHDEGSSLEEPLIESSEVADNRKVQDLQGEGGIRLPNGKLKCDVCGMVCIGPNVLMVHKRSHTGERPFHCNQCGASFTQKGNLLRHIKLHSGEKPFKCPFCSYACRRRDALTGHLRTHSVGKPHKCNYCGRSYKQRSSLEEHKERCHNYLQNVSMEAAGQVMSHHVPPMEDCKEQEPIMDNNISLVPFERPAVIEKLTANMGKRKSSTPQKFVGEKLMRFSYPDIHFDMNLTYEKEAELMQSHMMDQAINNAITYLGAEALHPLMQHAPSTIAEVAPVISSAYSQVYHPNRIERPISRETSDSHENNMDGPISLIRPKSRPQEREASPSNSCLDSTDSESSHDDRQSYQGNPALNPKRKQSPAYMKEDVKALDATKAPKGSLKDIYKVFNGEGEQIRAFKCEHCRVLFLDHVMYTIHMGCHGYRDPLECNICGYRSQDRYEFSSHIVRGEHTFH
T1 sequence (Q8C7D2 whole entry I391V): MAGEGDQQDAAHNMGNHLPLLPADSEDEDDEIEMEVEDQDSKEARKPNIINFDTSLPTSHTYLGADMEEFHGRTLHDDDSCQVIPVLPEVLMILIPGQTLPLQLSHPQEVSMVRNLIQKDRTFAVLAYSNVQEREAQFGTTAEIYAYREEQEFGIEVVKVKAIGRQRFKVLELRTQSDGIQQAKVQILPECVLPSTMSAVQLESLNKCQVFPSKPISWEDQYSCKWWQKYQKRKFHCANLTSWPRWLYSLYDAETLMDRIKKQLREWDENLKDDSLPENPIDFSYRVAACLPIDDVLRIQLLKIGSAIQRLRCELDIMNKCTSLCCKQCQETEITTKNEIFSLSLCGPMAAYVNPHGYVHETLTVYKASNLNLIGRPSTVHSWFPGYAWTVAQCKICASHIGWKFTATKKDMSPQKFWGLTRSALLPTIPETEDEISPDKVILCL
T1 sequence (Q3U1J4 whole entry partner): as the sequence (Q16531 whole entry partner, the tested form may be a part) above, with N418G, A495G, T745S, T1020A counted along it

## Cc1ccc(NC(=O)NC(C)(C)c2cccc(NC3=CC(=O)N(C4CCC(=O)NC4=O)C3=O)c2)cc1Cl (stereo not drawn) [Compound 69, 1-(3-chloro-4-methylphenyl)-3-(2-(3-((1-(2,6-dioxopiperidin-3-yl)-2,5-dioxo-2,5-dihydro-1H-pyrrol-3-yl)amino)phenyl)propan-2-yl)urea]
Helios [1]
  Helios degradation in isolated Tregs: able to induce degradation of Helios in Tregs
IKZF1; [9]
  IKZF1 GFP/RFP Relative Abundance: 0.086
IKZF1; [10]
  IKZF1 GFP/RFP Relative Abundance: 0.140
IKZF1; [11]
  IKZF1 GFP/RFP Relative Abundance: 0.132
IKZF1; [12]
  DC50: 14 nM
Helios [2]; Jurkat cells, 1 μM compound with 1 μM bortezomib, MLN4924 or carfilzomib, 4 h
  Helios degradation on co-treatment with proteasome or NAE inhibitor: Helios degradation is dependent on the proteasome
Helios [2]; wildtype or Crbn−/− Jurkat cells, 4 h treatment
  Helios degradation (immunoblot): induced CRBN-dependent Helios degradation
GSPT1 [3]
  DC50: > 1000 nM
IKZF2; [9]
  IKZF2 GFP/RFP Relative Abundance: 0.032
IKZF2; [10]
  IKZF2 GFP/RFP Relative Abundance: 0.013
IKZF2; [11]
  IKZF2 GFP/RFP Relative Abundance: 0.028
IKZF2; [12]
  DC50: 3.6 nM
CRBN and Helios (IKZF2); FIG. 1B, 2A, 5
  TR-FRET signal (520/490 ratio), CRBN-Helios dimerization, in words: induced higher TR-FRET signals than CC-885
CRBN and Helios (IKZF2); compound concentration 6.6667E−05
  TR-FRET-IKZF2 (Normalized to CC-885): 2.037
CRBN and Helios (IKZF2); compound concentration 6.6667E−06
  TR-FRET-IKZF2 (Normalized to CC-885): 1.970
CRBN and Helios (IKZF2); compound concentration 6.6667E−07 (667 nM)
  TR-FRET-IKZF2 (Normalized to CC-885): 1.737
Ikaros [4]
  Ikaros degradation in regulatory T cells (flow cytometry): not Ikaros
Helios [5]
  Helios degradation in regulatory T cells (flow cytometry): capable of inducing degradation of Helios
Ikaros [6]
  Ikaros degradation (immunoblot): did not affect the stability of GSPT1 or Ikaros
GSPT1 [7]
  GSPT1 stability (immunoblot): did not affect the stability of GSPT1 or Ikaros
[8]
  IFNγ production: increased production of IFNγ upon restimulation
